# In ChEMBL document CHEMBL4376805, “Plasmodium Purine Metabolism and Its Inhibition by Nucleoside and Nucleotide Analogues” (J Med Chem, 2019):
# How the values were obtained:
# [1] = molecular target: T1, GMP synthase [glutamine-hydrolyzing] (Plasmodium falciparum) (UniProt Q8IJR9); assay: Inhibition of Plasmodium falciparum N-terminal His-tagged GMP synthase expressed in Escherichia coli AT2465 assessed as reduction in NADH formation incubated at 0.5 mM for 20 mins by spectrophotometric analysis relative to control
# T1 sequence (whole entry): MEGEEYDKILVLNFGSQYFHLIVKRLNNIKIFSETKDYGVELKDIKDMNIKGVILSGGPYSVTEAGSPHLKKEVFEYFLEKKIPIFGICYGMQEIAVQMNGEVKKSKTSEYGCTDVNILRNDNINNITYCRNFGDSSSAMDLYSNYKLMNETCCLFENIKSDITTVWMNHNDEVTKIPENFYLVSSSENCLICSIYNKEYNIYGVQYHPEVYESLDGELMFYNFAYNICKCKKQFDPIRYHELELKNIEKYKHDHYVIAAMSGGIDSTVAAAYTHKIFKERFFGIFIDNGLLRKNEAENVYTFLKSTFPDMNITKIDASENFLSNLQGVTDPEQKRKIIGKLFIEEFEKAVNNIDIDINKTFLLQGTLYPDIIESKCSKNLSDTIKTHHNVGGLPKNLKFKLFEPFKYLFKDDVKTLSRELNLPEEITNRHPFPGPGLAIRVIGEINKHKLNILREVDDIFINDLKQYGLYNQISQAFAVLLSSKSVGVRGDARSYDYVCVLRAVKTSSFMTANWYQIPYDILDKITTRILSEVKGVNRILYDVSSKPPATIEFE
# Plasmodium falciparum = assay: Antimalarial activity against Plasmodium falciparum 3D7 assessed as reduction in parasite growth incubated for 48 hrs by Giemsa-staining counting based microscopic analysis; type: functional, organism-based; conditions: 3D7, 48 h
# [2] = Inhibition of Plasmodium falciparum HGXPRT expressed in Escherichia coli BL21 (DE3) assessed as inhibitor constant for enzyme-inhibitor-substrate complex formation using [5'-14C]IMP as substrate by scintillation counting method
# [3] = molecular target: T2, Hypoxanthine-guanine phosphoribosyltransferase (Homo sapiens, UniProt P00492); assay: Inhibition of human HGPRT assessed as inhibitor constant for enzyme-inhibitor complex formation using [5'-14C]IMP as substrate by scintillation counting method
# T2 sequence (P00492 whole entry): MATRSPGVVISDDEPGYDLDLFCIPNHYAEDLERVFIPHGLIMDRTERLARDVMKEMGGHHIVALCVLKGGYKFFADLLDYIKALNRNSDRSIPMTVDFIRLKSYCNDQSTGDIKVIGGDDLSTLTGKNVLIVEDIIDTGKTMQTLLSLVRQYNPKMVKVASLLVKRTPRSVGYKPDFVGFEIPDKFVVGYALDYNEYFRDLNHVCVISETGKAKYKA
# [4] = molecular target: GMP synthase [glutamine-hydrolyzing] (Homo sapiens, UniProt P49915)
# Chain of GMP synthase [glutamine-hydrolyzing] (P49915 whole entry): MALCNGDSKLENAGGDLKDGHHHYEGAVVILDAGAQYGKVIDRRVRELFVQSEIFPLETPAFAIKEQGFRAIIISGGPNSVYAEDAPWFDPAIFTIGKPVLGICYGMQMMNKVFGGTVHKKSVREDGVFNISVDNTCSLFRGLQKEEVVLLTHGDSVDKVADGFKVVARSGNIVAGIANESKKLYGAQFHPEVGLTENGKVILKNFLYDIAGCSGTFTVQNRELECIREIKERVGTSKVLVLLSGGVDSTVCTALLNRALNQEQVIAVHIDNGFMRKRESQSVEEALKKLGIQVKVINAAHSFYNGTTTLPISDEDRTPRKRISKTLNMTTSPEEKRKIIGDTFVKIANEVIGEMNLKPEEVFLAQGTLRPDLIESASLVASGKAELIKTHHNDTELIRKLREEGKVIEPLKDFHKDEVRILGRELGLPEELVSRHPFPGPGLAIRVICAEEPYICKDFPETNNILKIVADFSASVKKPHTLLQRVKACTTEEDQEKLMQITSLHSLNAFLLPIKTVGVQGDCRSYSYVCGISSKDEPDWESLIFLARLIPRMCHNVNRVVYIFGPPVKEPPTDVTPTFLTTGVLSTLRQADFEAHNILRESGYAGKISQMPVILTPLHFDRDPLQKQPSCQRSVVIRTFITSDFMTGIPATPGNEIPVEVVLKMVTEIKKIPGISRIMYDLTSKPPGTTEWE
# Description: Inhibition of human GMP synthase
compound,measurement,setting,value
Nc1ncnc2c1ncn2[C@]1(CO)O[C@H](CO)[C@@H](O)[C@H]1O [PSICOFURANINE],inhibition,[1],25%
same,IC50,Plasmodium falciparum,300 µM
Nc1nc2c([C@@H]3N[C@H](COP(=O)(O)O)[C@@H](O)[C@H]3O)c[nH]c2c(=O)[nH]1,Ki,[2],0.014 µM
same,Ki,[3],0.056 µM
C=C1O[C@@](CO)(n2cnc3c(N)ncnc32)[C@H](O)[C@@H]1O [DECOYININE],IC50,[4],46.5 µM
